Test results: PMC2902275 (Cancer prevention research (Philadelphia, Pa.), 2009)

Molecular target: HDAC3 (Homo sapiens, UniProt O15379)
Assay: preliminary enzyme kinetics of HDAC3 inhibition
Type: biochemical

Chain of HDAC3 (O15379 whole entry): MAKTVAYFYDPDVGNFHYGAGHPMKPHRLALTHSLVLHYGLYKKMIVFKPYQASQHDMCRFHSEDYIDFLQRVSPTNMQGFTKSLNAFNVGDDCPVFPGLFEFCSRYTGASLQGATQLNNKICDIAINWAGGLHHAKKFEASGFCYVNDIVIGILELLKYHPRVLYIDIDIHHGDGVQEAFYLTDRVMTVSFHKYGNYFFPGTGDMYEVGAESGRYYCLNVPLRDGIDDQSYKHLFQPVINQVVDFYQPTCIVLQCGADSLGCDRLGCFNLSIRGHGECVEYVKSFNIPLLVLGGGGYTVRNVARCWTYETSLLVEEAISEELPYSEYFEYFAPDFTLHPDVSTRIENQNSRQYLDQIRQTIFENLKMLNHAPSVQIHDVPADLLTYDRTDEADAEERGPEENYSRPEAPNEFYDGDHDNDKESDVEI

C[Se]CCC(=O)C(=O)O [KMSB, α-keto-γ-methylselenobutyrate]
Ki: ~30 µM
